Results on two compounds are retold here after publication PMC6214026, “PSMA-Oriented Target Delivery of Novel Anticancer Prodrugs: Design, Synthesis, and Biological Evaluations of Oligopeptide-Camptothecin Conjugates” (International Journal of Molecular Sciences, 2018).

One series concerns MDCK cells. Briefly: cells. The format is cell-based. Conditions: MTT, 72 h, normal cells, read-out: IC50 MDCK. As to the method:
(§1) The cytotoxicities of PSMA-activated prodrug CPT-HT-J-ZLn and PSMA hydrolysate CPT-D-GLn were evaluated by MTT assays on PSMA-expressing (PSMA^+) cancer cell LNCaP-FGC, non-PSMA-expressing (PSMA^−) cancer cells HepG2, MCF-7, Hela, DU145, and PC-3, and normal cells MDCK, LO2, respectively, using CPT as a positive control.
(§2) The cytotoxicity of all the tested compounds was evaluated in vitro via the MTT method against PSMA-expressing LNCaP-FGC cells and non-PSMA-expressing cells HepG2, Hela, MCF-7, DU145, PC-3 cells using CPT as the positive control. Tumor cells growing in the logarithmic phase were seeded in 96-well plates at a density 3 × 10^3 cells/well and incubated overnight. The following day, cells were then treated with serial dilutions of the tested compounds for 72 h. At the end of this incubation, 20 µL of 5 mg/mL methylthiazol tetrazolium (MTT) was added to each well and incubation proceeded at 37 °C for another 4 h. After the supernatant medium was thrown away, 150 µL dimethylsulphoxide (DMSO) were added to each well and absorbance was measured at 490 nm using a plate reader (BIORAD 550 spectrophotometer, Bio-rad Life Science Development Ltd., Berkeley, CA, USA). Experiments were performed in triplicate and the values were the average of three (n = 3) independent experiments. The concentration of the compound that results in 50% growth inhibition corresponds to the IC50. Tumor cell growth inhibitory rate was calculated using Equation (1): % inhibition = (1 − Sample group OD/Control group OD) × 100%(1)

The next series has as its system LO2 cells. Briefly: cells. The following applies: MTT, 72 h, normal cells, read-out: IC50 LO2. In kind it is cell-based. As to the method:
as §1, §2

In series [1] the test system is LNCaP-FGC cells (PSMA-expressing). Briefly: MTT cytotoxicity assay, LNCaP-FGC. In kind it is cell-based, human. The following applies: for IC50: MTT, 72 h, mean ± SD, n = 3, PSMA+, read-out: IC50 LNCaP-FGC. As to the method: as §1
(§3) The human prostate cancer cell line (LNCaP-FGC), human prostate cancer cell line (PC-3), human prostate cancer cell line (DU-145), human breast cancer cell line (MCF-7), human hepatocellular carcinoma cell line (HepG2), human cervical cancer cell line (Hela), were obtained from the Chinese Academy of Medical Sciences and Peking Union Medical College. The cultures of the cells were maintained as a monolayer in RPMI 1640 or DMEM supplemented with 10% (v/v) heat inactivated fetal bovine serum and 1% (v/v) enicillin/streptomycin (Corning, New York, NY, USA) and incubated at 37 °C in a humidified atmosphere with 5% CO2. The tested compounds were dissolved in DMSO (Sigma, St. Louis, MO, USA) and added at required concentrations to the cell culture.
as §2

Series [2] deals with HepG2 cells (non-PSMA-expressing). Briefly: cells. The format is cell-based, human. Conditions: MTT, 72 h, mean ± SD, n = 3, read-out: IC50 HepG2. As to the method:
as §1, §3, §2

Series [3] deals with PC-3 cells (non-PSMA-expressing). Briefly: cells. The format is cell-based, human. The following applies: MTT, 72 h, mean ± SD, n = 3, read-out: IC50 PC-3. As to the method: as §1, §3, §2
The test system of series [4] is MCF-7 cells (non-PSMA-expressing). Briefly: cells. The format is cell-based, human. The following applies: MTT, 72 h, mean ± SD, n = 3, read-out: IC50 MCF-7. As to the method: as §1, §3, §2
Series [5] has as its system DU145 cells (non-PSMA-expressing). Briefly: cells. In kind it is cell-based, human. Conditions: MTT, 72 h, mean ± SD, n = 3, read-out: IC50 DU145. As to the method:
as §1, §3, §2

A short description of series [6]: Aqueous (equilibrium) solubility study in PBS. The format is physicochemical. The following applies: pH = 7.4, 37 °C. As to the method: The equilibrium solubility of CPT and CPT-HT-J-ZL12 was determined in triplicate in PBS, according to the reference method with some modifications. An excess amount (~5 mg) of the tested compounds were placed into tubes, and 1 mL PBS was added to the tube. Then the tubes were incubated at 37 °C for 24 h in an ermostated oscillator (HZQ-QX, Harbin Donglian Instrument Co., Ltd., Harbin, China). After incubation, samples (0.1 mL) were removed and centrifuged at 10,000× g for 10 min with high speed centrifuge (Sorvall™ Legend™ Micro 21, Thermo Fisher Scientific, Waltham, MA, USA). […] of the supernatant was diluted, and the concentration was measured with HPLC according the method below. CPT and CPT-HT-J-ZL12 were measured by HPLC systems configured with a Waters 2695 separation module and a Waters 2695 ultraviolet (UV) detector with the following conditions: Xbridge C18 column (250 mm × 4.6 mm, […]); temperature, 25 °C; elution flow rate, 1.0 mL/min; detection wavelength, 365 nm. mobile phase, 0.2% […] in water (A) and 0.2% formic acid in acetonitrile (B) using a gradient elution of 10–60% B at 0–5.0 min, 60–80% B at 5.0–15.0 min, 80% B at 15.0–17.0 min, and 10% B at 17.1–23.0 min.

In series [7] the test system is HepG2 (PSMA−) cells. Briefly: In vitro cellular uptake by CLSM, HepG2. In kind it is cell-based, human. The following applies: HepG2, 10 µM, 1 h and 4 h. An excerpt:
(§4) In addition to solubilization, the pentapeptide serves to mask the cytotoxicity by preventing nonspecific uptake of drug into cells due to the presence of negative charged amino acids. Upon cleavage of the prodrug by PSMA within the PSMA-expressing cells, the active compound was able to enter cells. […] The nucleus was stained with PI (red) and the fluorescence of CPT was pseudo-colored with blue.
(§5) To evaluate the cellular uptake of the CPT-HT-J-ZL12, LNCaP-FGC (PSMA^+) and HepG2 (PSMA^−) cells were seeded at a density of 1 × 10^4 cells/well in 35 mm glass bottom dishes with 1 mL complete 1640 medium. After incubation for 24 h, the culture medium was replaced with 2 mL of fresh medium containing 10 µM CPT-HT-J-ZL12. Then the cells were incubated further for different incubation time periods (1 and 4 h). Following the removal of the culture media, cells were washed with cold PBS, fixed with 70% ethanol for 30 min at 4 °C. Subsequently, the cells were stained with 5 μg/mL propidium iodide (excitation wavelength was 561 nm) for 5 min to visualize nucleus. The cells were observed by a UltraView RS confocal laser scanning microscopy (PerkinElmer, Waltham, MA, USA).

Series [8] concerns HeLa cells (non-PSMA-expressing). Briefly: MTT cytotoxicity assay, HeLa. The following applies: 72 h, mean ± SD, n = 3. In kind it is cell-based, human. As to the method: as §1
The tested compounds were dissolved in DMSO (Sigma, St. Louis, MO, USA) and added at required concentrations to the cell culture.
as §2, with “experiments.” for “experiments. The concentration of the compound that results in 50% growth inhibition corresponds to the IC50. Tumor cell growth inhibitory rate was calculated using Equation (1): % inhibition = (1 − Sample group OD/Control group OD) × 100%(1)”

Series [9] has as its system LNCaP-FGC (PSMA+) cells. Briefly: Cell cycle by PI staining flow cytometry, LNCaP-FGC. In kind it is cell-based, human. Conditions: for percentage of cells in S phase (Dip S): 72 h. As to the method:
To further study CPT-HT-J-ZL12-induced growth inhibition, the cell cycle changes were evaluated on LNCaP-FGC (PSMA^+) using flow cytometric methods.
The cell cycle was measured using PI staining and flow cytometry analysis according to the instructions of the manufacturer (Cell Cycle and Apoptosis Analysis Kit, Beyotime Biotechnology, Jiangsu, China). LNCaP-FGC cells (2 × 10^4 cells/mL) in logarithmic growth phase were seeded in 6-well culture plate and incubated for 24 h at 37 °C in incubator with 5% CO2. After exposure to different concentrations of CPT-HT-J-ZL12 (0.63, 1.25, 2.50 μM) for 72 h, cells were harvested and washed twice with cold PBS. Then the cells were centrifuged at 2400× g for 10 min, resuspended in 1 mL 70% cold ethanol and fixed for 12 h at −20 °C. After being washed twice with cold PBS, the cells were incubated with 0.5 mL propidium iodide for 30 min at 37 °C. Detection of the cell cycle was carried out by the Flow Cytometer at 488 nm excitation wavelength

The test system of series [10] is HepG2 (PSMA−) cells. Briefly: Apoptosis by Annexin V-FITC/PI flow cytometry, HepG2. The following applies: 72 h.
Protocol: (§6) The apoptotic effect was determined by counting the apoptosis ratios (including the early and late apoptosis ratios).
(§7) To determine early apoptosis and secondary necrosis, LNCaP-FGC (PSMA^+) and HepG2 (PSMA^−) cells were stained with annexin-V FITC apoptosis detection kit (Beijing BioDee Biotech. Co., Ltd., Beijing, China) as per the manufacturer’s instructions. […] The resulting pellet was mixed with 200 µL binding buffer of the Annexin V-FITC kit, then 5 µL FITC labeled annexin V was added and mixed gently. After incubation at 4 °C for 10 min in the dark, 5 µL PI was added and mixed gently. Then the cells were immediately analyzed with a flow cytometry.
For series [11], the system named is LNCaP-FGC (PSMA+) cells. Briefly: In vitro cellular uptake by CLSM, LNCaP-FGC. The following applies: 10 µM. The format is cell-based, human.
Source text: as §4, §5

For series [12], the system named is LNCaP-FGC (PSMA+) cells. Briefly: Apoptosis by Annexin V-FITC/PI flow cytometry, LNCaP-FGC. Conditions: 72 h.
Protocol: as §6, §7

Molecules are shown by their SMILES. Converted amounts (≈) assume the structure as drawn. “And” between values parts separate entries of the source, which are not always exact repeats. Equal entries are not always repeated. Where two headings read alike, the source gives them in different places.

On to `CC[C@@]1(O)C(=O)OCc2c1cc1n(c2=O)Cc2cc3ccccc3nc2-1` [CPT, Camptothecin], for which the IC50 is 20 ± 10 nM with MDCK cells (Canis lupus familiaris, MDCK); 40 ± 10 nM in the series with LO2 cells (Homo sapiens, L02); 180 ± 170 nM in [1] (Homo sapiens); 5430 ± 810 nM in [2] (Homo sapiens, HepG2); 130 ± 90 nM in [3] (Homo sapiens, PC-3); 160 ± 100 nM in series [4] (Homo sapiens, MCF7). Moreover, the half-inhibitory concentration (IC50) in [5] (Homo sapiens, DU-145) came to 210 ± 90 nM. In series [6], this compound registered a solubility at 24 h of 3 µg/mL (≈ 8.61 µM).
Turning to `CC[C@@]1(OC(=O)CCCCCCCCCCCNC(=O)[C@@H](N)CCC(=O)N[C@@H](CCC(=O)N[C@@H](CCC(=O)N[C@@H](CC(=O)O)C(=O)N[C@@H](CCC(=O)O)C(=O)O)C(=O)O)C(=O)O)C(=O)OCc2c1cc1n(c2=O)Cc2cc3ccccc3nc2-1` [CPT-HT-J-ZL12, (3S,6S,11S,16S,21S)-21-amino-6-(carboxymethyl)-35-(((S)-4-ethyl-3,14-dioxo-3,4,12,14-tetrahydro-1H-pyrano[3′,4′:6,7]indolizino[1,2-b]quinolin-4-yl)oxy)-5,8,13,18,22,35-hexaoxo-4,7,12,17,23-pentaazapentatriacontane-1,3,11,16-tetracarboxylic acid], the “cellular uptake (blue CPT fluorescence)” value with HepG2 (PSMA−) cells [7] was “almost no blue fluorescence”; in the series on LNCaP-FGC (PSMA+) cells [11] (4 h), “increased with the incubation time”. Also, the IC50 is > 40000 nM in [8]; > 40000 nM in the series on MDCK cells; > 40000 nM in the series on LO2 cells; 1000 ± 200 nM in series [1]; > 40000 nM in series [2]; 43000 ± 3690 nM in series [3]. Further, the results for the IC50 in [4] and in series [5] were 21700 ± 4960 nM and 5400 ± 1220 nM, respectively. For the same compound, the “percentage of cells in S phase (Dip S)” value in the series with LNCaP-FGC (PSMA+) cells [9] (1.25 µM) is on record as 70.86%; in the series with LNCaP-FGC (PSMA+) cells [9] (2.50 µM), 83.66%. Further, the “effect on cell cycle” value with LNCaP-FGC (PSMA+) cells [9] (0.63 to 2.50 µM) is “induce cell cycle arrest at the S phase”. Besides, in [1] (LNCaP-FGC (PSMA+) vs DU145), the “cytotoxicity against LNCaP-FGC higher than against DU145” value amounted to 5 fold. Further, in series [1] (LNCaP-FGC (PSMA+) vs Hela), the “cytotoxicity against LNCaP-FGC higher than against Hela” value is 40 fold and ~ 40 fold. Moreover, in series [1] (LNCaP-FGC (PSMA+) vs HepG2), the “cytotoxicity against LNCaP-FGC higher than against HepG2” value was 40 fold and ~ 40 fold. Besides, the “cytotoxicity against LNCaP-FGC higher than against MCF-7” value in [1] (LNCaP-FGC (PSMA+) vs MCF-7) was found to be 21 fold. Besides, the “percentage of apoptotic cells” value is 19.80% in the series with HepG2 (PSMA−) cells [10] (HepG2, 20.00 µM); 28.30% in the series on HepG2 (PSMA−) cells [10] (HepG2, 40.00 µM); 30.10% in the series on HepG2 (PSMA−) cells [10] (HepG2, 80.00 µM). Also, the “cellular uptake (blue CPT fluorescence intensity)” value in the series with LNCaP-FGC (PSMA+) cells [11] (1 h) is listed as “stronger”. The “apoptosis ratio (early and late)” value in the series on LNCaP-FGC (PSMA+) cells [12] (0.63 µM) is recorded as 29.90%; with LNCaP-FGC (PSMA+) cells [12] (1.25 µM), 33.30%; in the series with LNCaP-FGC (PSMA+) cells [12] (2.50 µM) it was 48.90%.
